Source: patent publication US9012443B2 (Amgen Inc., priority 2011, dated 2015)

These compounds were tested against Nav 1.7 (Homo sapiens (Human), UniProt Q15858) (assay: Nav 1.7 in vitro PX assay (PatchXpress whole cell voltage clamp)). Conditions: 293 cells, human Nav1.7, partially inactivated state; read-out: Nav1.7 PX IC50 IP.
Assay type: cell-based
Description: Nav 1.7 In Vitro PX Assay
293 cells stably transfected with human Nav1.7 were recorded in whole cell voltage clamp mode with the PatchXpress automated electrophysiology system (Molecular Devices, LLC, Sunnyvale, Calif.). Compound effects were measured on a partially inactivated state of the sodium channel. Cells were clamped to a holding potential yielding 20 to 50% inactivation. To elicit sodium current, channels were activated by pulsing to −10 mV for 20 msec. […] A single concentration of test compound was applied to cells for a duration of 3 minutes. Peak sodium current was measured at the end of the compound addition period to determine percent inhibition. Three to five cells were tested per concentration, and IC50 curves were fitted to percent inhibition as a function of concentration.

Nav 1.7, sequence (Q15858 whole entry): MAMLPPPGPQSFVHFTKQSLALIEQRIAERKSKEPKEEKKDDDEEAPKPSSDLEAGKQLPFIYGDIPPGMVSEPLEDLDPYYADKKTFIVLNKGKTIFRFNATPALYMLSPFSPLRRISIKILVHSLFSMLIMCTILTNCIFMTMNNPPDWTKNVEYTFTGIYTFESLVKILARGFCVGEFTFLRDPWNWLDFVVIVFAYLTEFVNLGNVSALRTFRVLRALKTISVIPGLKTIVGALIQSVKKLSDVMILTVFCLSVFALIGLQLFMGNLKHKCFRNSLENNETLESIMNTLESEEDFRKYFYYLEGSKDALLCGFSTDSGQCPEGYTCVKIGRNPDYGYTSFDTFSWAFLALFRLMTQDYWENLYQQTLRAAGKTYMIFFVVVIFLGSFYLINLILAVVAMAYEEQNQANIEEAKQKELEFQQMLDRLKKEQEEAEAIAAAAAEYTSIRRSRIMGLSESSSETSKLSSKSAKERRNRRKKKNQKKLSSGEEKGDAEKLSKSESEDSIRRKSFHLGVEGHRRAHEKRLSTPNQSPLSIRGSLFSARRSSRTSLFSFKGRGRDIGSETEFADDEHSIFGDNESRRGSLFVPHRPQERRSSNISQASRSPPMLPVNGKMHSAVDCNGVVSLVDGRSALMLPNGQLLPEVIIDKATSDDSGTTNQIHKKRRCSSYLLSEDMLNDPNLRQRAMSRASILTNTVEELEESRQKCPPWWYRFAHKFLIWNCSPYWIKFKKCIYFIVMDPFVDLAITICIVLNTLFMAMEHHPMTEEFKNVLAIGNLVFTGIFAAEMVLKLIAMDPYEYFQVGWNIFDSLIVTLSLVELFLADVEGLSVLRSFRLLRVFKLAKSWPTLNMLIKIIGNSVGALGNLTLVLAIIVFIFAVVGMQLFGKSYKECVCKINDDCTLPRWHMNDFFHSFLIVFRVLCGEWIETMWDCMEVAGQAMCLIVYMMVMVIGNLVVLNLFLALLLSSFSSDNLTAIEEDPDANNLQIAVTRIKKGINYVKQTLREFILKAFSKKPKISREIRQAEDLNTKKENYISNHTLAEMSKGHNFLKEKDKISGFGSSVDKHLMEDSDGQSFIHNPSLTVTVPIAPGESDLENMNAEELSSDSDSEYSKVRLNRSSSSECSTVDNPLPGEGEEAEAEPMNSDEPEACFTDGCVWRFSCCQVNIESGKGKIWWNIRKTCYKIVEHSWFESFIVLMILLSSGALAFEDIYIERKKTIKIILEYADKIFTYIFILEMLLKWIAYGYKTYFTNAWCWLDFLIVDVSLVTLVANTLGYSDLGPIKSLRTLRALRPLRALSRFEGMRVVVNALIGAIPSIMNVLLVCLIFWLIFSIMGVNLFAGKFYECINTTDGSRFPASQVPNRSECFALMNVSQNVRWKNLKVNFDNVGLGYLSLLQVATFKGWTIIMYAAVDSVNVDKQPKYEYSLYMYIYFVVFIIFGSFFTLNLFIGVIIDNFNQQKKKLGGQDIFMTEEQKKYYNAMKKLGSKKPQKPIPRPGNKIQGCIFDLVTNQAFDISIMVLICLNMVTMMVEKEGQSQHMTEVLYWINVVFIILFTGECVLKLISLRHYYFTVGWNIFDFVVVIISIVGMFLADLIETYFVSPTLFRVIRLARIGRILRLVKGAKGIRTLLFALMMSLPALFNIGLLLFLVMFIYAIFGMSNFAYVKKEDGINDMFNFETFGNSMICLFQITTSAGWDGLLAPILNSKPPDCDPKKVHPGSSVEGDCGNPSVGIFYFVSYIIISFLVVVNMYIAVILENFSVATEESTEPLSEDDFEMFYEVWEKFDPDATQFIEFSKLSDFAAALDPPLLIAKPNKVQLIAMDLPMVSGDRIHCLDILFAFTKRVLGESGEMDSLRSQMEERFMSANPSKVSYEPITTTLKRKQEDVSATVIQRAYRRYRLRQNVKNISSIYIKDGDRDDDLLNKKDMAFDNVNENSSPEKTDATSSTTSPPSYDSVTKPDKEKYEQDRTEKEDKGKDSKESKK

IC50 | Compound
16600 nM | COc1cc(-c2cc(F)cc(F)c2)ccc1-c1nccc2cc(S(=O)(=O)Nc3nnco3)ccc12 [Example 372, 1-(3′,5′-DIFLUORO-3-METHOXY-[1,1′-BIPHENYL]-4-YL)-N-(1,3,4-OXADIAZOL-2-YL)ISOQUINOLINE-6-SULFONAMIDE]
2940 nM | N#CCOc1cc(Cl)ccc1-c1nccc2cc(S(=O)(=O)Nc3ccncn3)ccc12 [Example 376, 1-(4-CHLORO-2-(CYANOMETHOXY)PHENYL)-N-(PYRIMIDIN-4-YL)ISOQUINOLINE-6-SULFONAMIDE 2,2,2-TRIFLUOROACETATE]
2420 nM | Cc1cnc(OC2CCNCC2)c(-c2nccc3cc(S(=O)(=O)Nc4nccs4)ccc23)c1 [Example 378, 1-(5-METHYL-2-(PIPERIDIN-4-YLOXY)PYRIDIN-3-YL)-N-(THIAZOL-2-YL)ISOQUINOLINE-6-SULFONAMIDE]
6710 nM | CC(C)(O)c1ccccc1-c1nccc2cc(S(=O)(=O)Nc3nccs3)ccc12 [Example 384, 1-(2-(2-HYDROXYPROPAN-2-YL)PHENYL)-N-(THIAZOL-2-YL)ISOQUINOLINE-6-SULFONAMIDE]
1390 nM | N#Cc1cc(C(F)(F)F)ccc1-c1nccc2cc(S(=O)(=O)Nc3nccs3)ccc12 [Example 386, 1-(2-CYANO-4-(TRIFLUOROMETHYL)PHENYL)-N-(THIAZOL-2-YL)ISOQUINOLINE-6-SULFONAMIDE]
1750 nM | COc1cc(C(F)(F)F)ccc1-c1nccc2cc(S(=O)(=O)Nc3cnsn3)ccc12 [Example 388, 1-(2-METHOXY-4-(TRIFLUOROMETHYL)PHENYL)-N-(1,2,5-THIADIAZOL-3-YL)ISOQUINOLINE-6-SULFONAMIDE]
2790 nM | COc1cc(C(F)(F)F)ccc1-c1nccc2cc(S(=O)(=O)Nc3ncco3)ccc12 [Example 389, 1-(2-METHOXY-4-(TRIFLUOROMETHYL)PHENYL)-N-(OXAZOL-2-YL)ISOQUINOLINE-6-SULFONAMIDE]
761 nM | COc1cc(C#N)ccc1-c1ncc(F)c2cc(S(=O)(=O)Nc3ncns3)ccc12 [Example 395, 1-(4-CYANO-2-METHOXYPHENYL)-4-FLUORO-N-(1,2,4-THIADIAZOL-5-YL)ISOQUINOLINE-6-SULFONAMIDE]
1040 nM | COc1ncccc1-c1ncc(F)c2cc(S(=O)(=O)Nc3nccs3)ccc12 [Example 396, 4-FLUORO-1-(2-METHOXYPYRIDIN-3-YL)-N-(THIAZOL-2-YL)ISOQUINOLINE-6-SULFONAMIDE]
3520 nM | N#Cc1ccccc1-c1ncc(F)c2cc(S(=O)(=O)Nc3nccs3)ccc12 [Example 397, 1-(2-CYANOPHENYL)-4-FLUORO-N-(THIAZOL-2-YL)ISOQUINOLINE-6-SULFONAMIDE]
682 nM | COc1cc(F)ccc1-c1ncc(C#N)c2cc(S(=O)(=O)Nc3nccs3)ccc12 [Example 399, 4-CYANO-1-(4-FLUORO-2-METHOXYPHENYL)-N-(THIAZOL-2-YL)ISOQUINOLINE-6-SULFONAMIDE]
1330 nM | COc1ccccc1-c1ncc(C#N)c2cc(S(=O)(=O)Nc3nccs3)ccc12 [Example 400, 4-CYANO-1-(2-METHOXYPHENYL)-N-(THIAZOL-2-YL)ISOQUINOLINE-6-SULFONAMIDE]
428 nM | N#CCOc1cc(Cl)ccc1-c1nccc2cc(S(=O)(=O)Nc3ncns3)ccc12 [Example 404, 1-(4-CHLORO-2-(CYANOMETHOXY)PHENYL)-N-(1,2,4-THIADIAZOL-5-YL)ISOQUINOLINE-6-SULFONAMIDE 2,2,2-TRIFLUOROACETATE]
4970 nM | COc1ncccc1-c1nccc2cc(S(=O)(=O)Nc3nccs3)ccc12 [Example 407, 1-(2-METHOXYPYRIDIN-3-YL)-N-(THIAZOL-2-YL)ISOQUINOLINE-6-SULFONAMIDE]
986 nM | COc1nc(Cl)ccc1-c1nccc2cc(S(=O)(=O)Nc3nccs3)ccc12 [Example 408, 1-(6-CHLORO-2-METHOXYPYRIDIN-3-YL)-N-(THIAZOL-2-YL)ISOQUINOLINE-6-SULFONAMIDE]
690 nM | COc1ncc(C(F)(F)F)cc1-c1nccc2cc(S(=O)(=O)Nc3nccs3)ccc12 [Example 409, 1-(2-METHOXY-5-(TRIFLUOROMETHYL)PYRIDIN-3-YL)-N-(THIAZOL-2-YL)ISOQUINOLINE-6-SULFONAMIDE]
1670 nM | COc1ncc(F)cc1-c1nccc2cc(S(=O)(=O)Nc3nccs3)ccc12 [Example 410, 1-(5-FLUORO-2-METHOXYPYRIDIN-3-YL)-N-(THIAZOL-2-YL)ISOQUINOLINE-6-SULFONAMIDE]

IC50 | Compound
830 nM | O=S(=O)(Nc1nccs1)c1ccc2c(-c3cc(F)ccc3OC(F)F)nccc2c1 [Example 413, 1-(2-(DIFLUOROMETHOXY)-5-FLUOROPHENYL)-N-(THIAZOL-2-YL)ISOQUINOLINE-6-SULFONAMIDE]
7110 nM | O=S(=O)(Nc1nccs1)c1ccc2c(-c3ccc(F)cc3OC3CCOCC3)nccc2c1 [Example 414, 1-(4-FLUORO-2-((TETRAHYDRO-2H-PYRAN-4-YL)OXY)PHENYL)-N-(THIAZOL-2-YL)ISOQUINOLINE-6-SULFONAMIDE]
1070 nM | CC(C#N)Oc1cc(F)ccc1-c1nccc2cc(S(=O)(=O)Nc3nccs3)ccc12 (stereo not drawn) [Example 415, 1-(2-(1-CYANOETHOXY)-4-FLUOROPHENYL)-N-(THIAZOL-2-YL)ISOQUINOLINE-6-SULFONAMIDE]
1220 nM | N#CC(F)Oc1cc(F)ccc1-c1nccc2cc(S(=O)(=O)Nc3nccs3)ccc12 (stereo not drawn) [Example 416, 1-(2-(CYANOFLUOROMETHOXY)-4-FLUOROPHENYL)-N-(THIAZOL-2-YL)ISOQUINOLINE-6-SULFONAMIDE]
367 nM | COc1cc(C(F)(F)F)ccc1-c1nccc2cc(S(=O)(=O)Nc3ncc(Cl)s3)ccc12 [Example 420, N-(5-CHLOROTHIAZOL-2-YL)-1-(2-METHOXY-4-(TRIFLUOROMETHYL)PHENYL)ISOQUINOLINE-6-SULFONAMIDE]
835 nM | COc1cc(C(F)(F)F)ccc1-c1nccc2cc(S(=O)(=O)Nc3cc(Cl)ncn3)ccc12 [Example 422, N-(6-CHLOROPYRIMIDIN-4-YL)-1-(2-METHOXY-4-(TRIFLUOROMETHYL)PHENYL)ISOQUINOLINE-6-SULFONAMIDE]
1340 nM | COc1cc(C(F)(F)F)ccc1-c1nccc2cc(S(=O)(=O)Nc3ccon3)ccc12 [Example 423]
1660 nM | COc1cc(C(F)(F)F)ccc1-c1nccc2cc(S(=O)(=O)Nc3nc(C)cs3)ccc12 [Example 424, 1-(2-METHOXY-4-(TRIFLUOROMETHYL)PHENYL)-N-(4-METHYLTHIAZOL-2-YL)ISOQUINOLINE-6-SULFONAMIDE]
2210 nM | COc1cc(C(F)(F)F)ccc1-c1nccc2cc(S(=O)(=O)Nc3nnc(Cl)s3)ccc12 [Example 425, N-(5-CHLORO-1,3,4-THIADIAZOL-2-YL)-1-(2-METHOXY-4-(TRIFLUOROMETHYL)PHENYL)ISOQUINOLINE-6-SULFONAMIDE]
2490 nM | COc1cc(C(F)(F)F)ccc1-c1nccc2cc(S(=O)(=O)Nc3ncc(F)cn3)ccc12 [Example 426]
4420 nM | COc1cc(C(F)(F)F)ccc1-c1nccc2cc(S(=O)(=O)Nc3ccc(F)cn3)ccc12 [Example 427, N-(5-FLUOROPYRIDIN-2-YL)-1-(2-METHOXY-4-(TRIFLUOROMETHYL)PHENYL)ISOQUINOLINE-6-SULFONAMIDE]
4570 nM | COc1cc(C(F)(F)F)ccc1-c1nccc2cc(S(=O)(=O)Nc3nc(C(F)(F)F)cs3)ccc12 [Example 428, 1-(2-METHOXY-4-(TRIFLUOROMETHYL)PHENYL)-N-(4-(TRIFLUOROMETHYL)THIAZOL-2-YL)ISOQUINOLINE-6-SULFONAMIDE]
4100 nM | COc1cc(C(F)(F)F)ccc1-c1nccc2cc(S(=O)(=O)Nc3cocn3)ccc12 [Example 440, 1-(2-METHOXY-4-(TRIFLUOROMETHYL)PHENYL)-N-(OXAZOL-4-YL)ISOQUINOLINE-6-SULFONAMIDE]
4880 nM | COc1cc(C(F)F)c(OC)cc1-c1nccc2cc(S(=O)(=O)Nc3ccncn3)ccc12 [Example 453, 1-(4-(DIFLUOROMETHYL)-2,5-DIMETHOXYPHENYL)-N-(PYRIMIDIN-4-YL)ISOQUINOLINE-6-SULFONAMIDE]
904 nM | COc1cc(-c2ccc(C#N)cc2)ccc1-c1nccc2cc(S(=O)(=O)Nc3ccncn3)ccc12 [Example 455, 1-(4′-CYANO-3-METHOXY-[1,1′-BIPHENYL]-4-YL)-N-(PYRIMIDIN-4-YL)ISOQUINOLINE-6-SULFONAMIDE]
4700 nM | COc1cc(-c2nccs2)ccc1-c1nccc2cc(S(=O)(=O)Nc3ccncn3)ccc12 [Example 456, 1-(2-METHOXY-4-(THIAZOL-2-YL)PHENYL)-N-(PYRIMIDIN-4-YL)ISOQUINOLINE-6-SULFONAMIDE]
828 nM | COc1cc(C(F)F)c(Cl)cc1-c1nccc2cc(S(=O)(=O)Nc3ccncn3)ccc12 [Example 457, 1-(5-CHLORO-4-(DIFLUOROMETHYL)-2-METHOXYPHENYL)-N-(PYRIMIDIN-4-YL)ISOQUINOLINE-6-SULFONAMIDE]

Compound | IC50
Cc1cnc(F)c(-c2nccc3cc(S(=O)(=O)Nc4nccs4)ccc23)c1 [Example 377, 1-(2-FLUORO-5-METHYLPYRIDIN-3-YL)-N-(THIAZOL-2-YL)ISOQUINOLINE-6-SULFONAMIDE] | 24500 nM
COc1ncc(C)cc1-c1nccc2cc(S(=O)(=O)Nc3nccs3)ccc12 [Example 411, 1-(2-METHOXY-5-METHYLPYRIDIN-3-YL)-N-(THIAZOL-2-YL)ISOQUINOLINE-6-SULFONAMIDE] | 685 nM
COc1nc(C)ccc1-c1nccc2cc(S(=O)(=O)Nc3nccs3)ccc12 [Example 412, 1-(2-METHOXY-6-METHYLPYRIDIN-3-YL)-N-(THIAZOL-2-YL)ISOQUINOLINE-6-SULFONAMIDE] | 1030 nM
NC(=O)COc1cc(F)ccc1-c1nccc2cc(S(=O)(=O)Nc3nccs3)ccc12 [Example 417, 2-(5-FLUORO-2-(6-(N-(THIAZOL-2-YL)SULFAMOYL)ISOQUINOLIN-1-YL)PHENOXY)ACETAMIDE] | 1230 nM
COc1nc(OCC(C)C)ccc1-c1nccc2cc(S(=O)(=O)Nc3ccncn3)ccc12 [Example 418, 1-(6-ISOBUTOXY-2-METHOXYPYRIDIN-3-YL)-N-(PYRIMIDIN-4-YL)ISOQUINOLINE-6-SULFONAMIDE] | 2130 nM
